# Assay results as given in patent publication US20060088477A1 (priority 2004, published 2006).
# What was measured:
# viruses = settings: cited from earlier work
# normal cells = settings: cited from earlier work
# [1] = zinc salt; cited from earlier work
# inflammation = system: inflammation
# Text: Another exemplary metal complex is disodium monozinc (II) citrate dihydrate, sold under the tradename MZC™ by National Research Laboratories, Ltd. of Cincinnati, Ohio.
Compound,toxicity to viruses (viruses),toxicity to normal cells (normal cells),pH [1],anti-inflammatory performance (inflammation)
CC(=O)[O-].CC(=O)[O-].[Zn+2] [zinc acetate],very toxic to viruses,quite toxic to normal cells,about 5,–
disodium monozinc (II) citrate dihydrate [MZC],–,–,–,dramatic anti-inflammatory performance
